Tested on: LecA-FITC binding to human A549 cells
Assay: Inhibition of LecA-FITC adhesion to A549 cells by fluorescence microscopy
Assay type: cell-based
Conditions: 100 μM compound, 10 μM LecA-FITC, 4 °C, 30 min
Experimental: LecA-mediated cell adhesion is crucial for the initial infection and host-cell invasion of P. aeruginosa. Therefore, compounds 1 and 2, a combination of 1+2 and the dual inhibitor 12 were assessed for their ability to inhibit LecA-binding to human A549 cells. 10 μM of LecA-FITC and different concentrations of the respective compounds were incubated at 4 °C for 30 min with confluent A549 cells.
10 min, facilitating the separation of bacterial cells from the supernatant. The latter was filtered through a 0.22 µm sterile filter and stored at –80 °C until further use. […]
CO2. […] The plates were then incubated for an additional 30 min at 37 °C and then, the UV absorbance was measured using a PHERAstar microplate reader. The test samples were read at a wavelength of 550 nm, while the blank was read at 620 nm. At last, the data were statistically analyzed and presented graphically using GraphPad Prism 9 (Figure S4 and S5). […]
have any negative effects. The plate was then incubated at 4 °C for 30 min and wells were washed 5 times with PBS prior to imaging via fluorescence microscopy.
Fluorescence image acquisition, processing, and quantification
Fluorescence images were captured using an inverted fluorescence microscope (Leica DMi8) equipped with a 20x objective (HC PL APO CS2 20x/0.75 IMM UV), an FITC filter cube (EX: […]

## CC(C)CC(S)C(=O)Nc1ccc(S[C@@H]2O[C@H](CO)[C@H](O)[C@H](O)[C@H]2O)cc1 (stereo partly shown) [Compound 12]
  inhibition of binding of LecA-FITC to A549 cells: significantly inhibited the binding of LecA-FITC to A549 cells to the background level

Reference: article PMC11339798, “Dual inhibitors of Pseudomonas aeruginosa virulence factors LecA and LasB” (Chemical Science, 2024)
